# Reference: US20250122202A1, “EGFR INHIBITOR, PREPARATION METHOD THEREFOR AND USE THEREOF” (SHANDONG NEW TIME PHARMACEUTICAL CO., LTD., priority 2021, published 2025)
# Tested on: KC-0178:NCI-1975 EGFR-L858R/T790M/C797S
# Experiment: Cell proliferation inhibition experiment (CCK-8), KC-0178
# Assay type: cell-based
# Conditions: Homo sapiens, 72 h
# Text: (§1) Inhibition rate %=[(A0−AS)/(A0−AC)]×100%.
row,Compound,IC50
1,"C=CC(=O)Nc1cccc(Oc2nc(Nc3ccc(N4CCN(C)CC4)c(F)c3)nc3[nH]ccc23)c1 [Avitinib, reference compound]",1 to 2 µM
2,CN1CCN(c2ccc(Nc3nc(N[C@@H]4C=C[C@H](CO)C4)c4c(C(=O)c5ccc(F)cc5)c[nH]c4n3)cc2)CC1 [Example 19],1 to 2 µM
3,CN1CCN(c2ccc(Nc3nc(N[C@H]4C=C[C@@H](CO)C4)c4c(C(=O)c5ccc(F)cc5)c[nH]c4n3)cc2)CC1 [Example 20],1 to 2 µM
4,CN1CCN(c2ccc(Nc3nc(N[C@H]4CC[C@@H](O)CC4)c4c(C(=O)c5ccc(F)cc5)c[nH]c4n3)cc2)CC1 [Example 55],0.1 to 1 µM
5,CN1CCN(c2ccc(Nc3nc(N[C@H]4CC[C@H](O)CC4)c4c(C(=O)c5ccc(F)cc5)c[nH]c4n3)cc2)CC1 [Example 56],1 to 2 µM
6,CN1CCN(c2ccc(Nc3nc(N[C@H]4CC[C@H](CO)CC4)c4c(C(=O)c5ccc(F)cc5)c[nH]c4n3)cc2F)CC1 [Example 78],1 to 2 µM
7,CN1CCN(c2ccc(Nc3nc(N[C@H]4CC[C@@H](N)CC4)c4c(C(=O)c5ccc(F)cc5)c[nH]c4n3)cc2)CC1 [Example 86],1 to 2 µM
8,CN1CCN(c2ccc(Nc3nc(N[C@@H]4CC[C@@H](CO)OC4)c4c(C(=O)c5ccc(F)cc5)c[nH]c4n3)cc2)CC1 [Example 95],< 0.1 µM
9,Cc1ccc(C(=O)c2c[nH]c3nc(Nc4ccc(N5CCOCC5)cc4)nc(N[C@H]4CC[C@H](CO)CC4)c23)cc1 [Example 97],0.1 to 1 µM
10,CN1CCN(c2ccc(Nc3nc(N[C@H]4CC[C@@H](CO)CC4)c4c(C(=O)c5ccc(F)cc5)c[nH]c4n3)cc2F)CC1 [Example 103],1 to 2 µM

# Tested on: KC-1474:PC-9 EGFR-Del19/T790M/C797S
# Experiment: Cell proliferation inhibition experiment (CCK-8), KC-1474
# Assay type: cell-based
# Conditions: Homo sapiens, 72 h
# Text: as §1
row,Compound,IC50
1,"C=CC(=O)Nc1cccc(Oc2nc(Nc3ccc(N4CCN(C)CC4)c(F)c3)nc3[nH]ccc23)c1 [Avitinib, reference compound]",0.1 to 1 µM
2,CN1CCN(c2ccc(Nc3nc(N[C@@H]4C=C[C@H](CO)C4)c4c(C(=O)c5ccc(F)cc5)c[nH]c4n3)cc2)CC1 [Example 19],0.1 to 1 µM
3,CN1CCN(c2ccc(Nc3nc(N[C@H]4C=C[C@@H](CO)C4)c4c(C(=O)c5ccc(F)cc5)c[nH]c4n3)cc2)CC1 [Example 20],0.1 to 1 µM
4,CN1CCN(c2ccc(Nc3nc(N[C@@H]4CC[C@@H](CO)OC4)c4c(C(=O)c5ccc(F)cc5)c[nH]c4n3)cc2)CC1 [Example 95],0.1 to 1 µM
5,Cc1ccc(C(=O)c2c[nH]c3nc(Nc4ccc(N5CCOCC5)cc4)nc(N[C@H]4CC[C@H](CO)CC4)c23)cc1 [Example 97],0.1 to 1 µM
6,CN1CCN(c2ccc(Nc3nc(N[C@H]4CC[C@@H](CO)CC4)c4c(C(=O)c5ccc(F)cc5)c[nH]c4n3)cc2F)CC1 [Example 103],< 0.1 µM

# Next, values leading:
row,IC50,Compound
1,< 0.1 µM,CN1CCN(c2ccc(Nc3nc(N[C@H]4CC[C@@H](O)CC4)c4c(C(=O)c5ccc(F)cc5)c[nH]c4n3)cc2)CC1 [Example 55]
2,< 0.1 µM,CN1CCN(c2ccc(Nc3nc(N[C@H]4CC[C@H](O)CC4)c4c(C(=O)c5ccc(F)cc5)c[nH]c4n3)cc2)CC1 [Example 56]
3,< 0.1 µM,CN1CCN(c2ccc(Nc3nc(N[C@H]4CC[C@H](CO)CC4)c4c(C(=O)c5ccc(F)cc5)c[nH]c4n3)cc2F)CC1 [Example 78]
4,< 0.1 µM,CN1CCN(c2ccc(Nc3nc(N[C@H]4CC[C@@H](N)CC4)c4c(C(=O)c5ccc(F)cc5)c[nH]c4n3)cc2)CC1 [Example 86]

# Tested on: PC-9 EGFR-Del19
# Experiment: Cell proliferation inhibition experiment (CCK-8), PC-9
# Assay type: cell-based
# Conditions: Homo sapiens, 72 h
# Text: as §1
row,Compound,IC50
1,CN1CCN(c2ccc(Nc3nc(N[C@@H]4C=C[C@H](CO)C4)c4c(C(=O)c5ccc(F)cc5)c[nH]c4n3)cc2)CC1 [Example 19],< 0.1 µM
2,CN1CCN(c2ccc(Nc3nc(N[C@H]4C=C[C@@H](CO)C4)c4c(C(=O)c5ccc(F)cc5)c[nH]c4n3)cc2)CC1 [Example 20],< 0.1 µM
3,CN1CCN(c2ccc(Nc3nc(N[C@H]4CC[C@@H](CO)CC4)c4c(C(=O)c5ccc(F)cc5)c[nH]c4n3)cc2F)CC1 [Example 103],< 0.1 µM

# Next, values leading:
row,IC50,Compound
1,< 0.1 µM,CN1CCN(c2ccc(Nc3nc(N[C@H]4CC[C@@H](O)CC4)c4c(C(=O)c5ccc(F)cc5)c[nH]c4n3)cc2)CC1 [Example 55]
2,< 0.1 µM,CN1CCN(c2ccc(Nc3nc(N[C@H]4CC[C@H](O)CC4)c4c(C(=O)c5ccc(F)cc5)c[nH]c4n3)cc2)CC1 [Example 56]
3,< 0.1 µM,CN1CCN(c2ccc(Nc3nc(N[C@H]4CC[C@H](CO)CC4)c4c(C(=O)c5ccc(F)cc5)c[nH]c4n3)cc2F)CC1 [Example 78]
4,< 0.1 µM,CN1CCN(c2ccc(Nc3nc(N[C@H]4CC[C@@H](N)CC4)c4c(C(=O)c5ccc(F)cc5)c[nH]c4n3)cc2)CC1 [Example 86]

# Tested on: H1975 EGFR-L858R/T790M
# Experiment: Cell proliferation inhibition experiment (CCK-8), H1975
# Assay type: cell-based
# Conditions: Homo sapiens, NCI-H1975, 72 h
# Text: as §1
row,Compound,IC50
1,CN1CCN(c2ccc(Nc3nc(N[C@@H]4C=C[C@H](CO)C4)c4c(C(=O)c5ccc(F)cc5)c[nH]c4n3)cc2)CC1 [Example 19],0.1 to 1 µM
2,CN1CCN(c2ccc(Nc3nc(N[C@H]4C=C[C@@H](CO)C4)c4c(C(=O)c5ccc(F)cc5)c[nH]c4n3)cc2)CC1 [Example 20],0.1 to 1 µM
3,CN1CCN(c2ccc(Nc3nc(N[C@H]4CC[C@@H](CO)CC4)c4c(C(=O)c5ccc(F)cc5)c[nH]c4n3)cc2F)CC1 [Example 103],0.1 to 1 µM

# The remaining lines, values ahead:
row,IC50,Compound
1,0.1 to 1 µM,CN1CCN(c2ccc(Nc3nc(N[C@H]4CC[C@@H](O)CC4)c4c(C(=O)c5ccc(F)cc5)c[nH]c4n3)cc2)CC1 [Example 55]
2,0.1 to 1 µM,CN1CCN(c2ccc(Nc3nc(N[C@H]4CC[C@H](O)CC4)c4c(C(=O)c5ccc(F)cc5)c[nH]c4n3)cc2)CC1 [Example 56]
3,0.1 to 1 µM,CN1CCN(c2ccc(Nc3nc(N[C@H]4CC[C@H](CO)CC4)c4c(C(=O)c5ccc(F)cc5)c[nH]c4n3)cc2F)CC1 [Example 78]
4,0.1 to 1 µM,CN1CCN(c2ccc(Nc3nc(N[C@H]4CC[C@@H](N)CC4)c4c(C(=O)c5ccc(F)cc5)c[nH]c4n3)cc2)CC1 [Example 86]

# Target: EGFR-Del19/T790M/C797S kinase (Homo sapiens, UniProt P00533, C797S/T790M, form not given)
# Sequence (P00533 25-1210 T790M/C797S limits assumed, form open): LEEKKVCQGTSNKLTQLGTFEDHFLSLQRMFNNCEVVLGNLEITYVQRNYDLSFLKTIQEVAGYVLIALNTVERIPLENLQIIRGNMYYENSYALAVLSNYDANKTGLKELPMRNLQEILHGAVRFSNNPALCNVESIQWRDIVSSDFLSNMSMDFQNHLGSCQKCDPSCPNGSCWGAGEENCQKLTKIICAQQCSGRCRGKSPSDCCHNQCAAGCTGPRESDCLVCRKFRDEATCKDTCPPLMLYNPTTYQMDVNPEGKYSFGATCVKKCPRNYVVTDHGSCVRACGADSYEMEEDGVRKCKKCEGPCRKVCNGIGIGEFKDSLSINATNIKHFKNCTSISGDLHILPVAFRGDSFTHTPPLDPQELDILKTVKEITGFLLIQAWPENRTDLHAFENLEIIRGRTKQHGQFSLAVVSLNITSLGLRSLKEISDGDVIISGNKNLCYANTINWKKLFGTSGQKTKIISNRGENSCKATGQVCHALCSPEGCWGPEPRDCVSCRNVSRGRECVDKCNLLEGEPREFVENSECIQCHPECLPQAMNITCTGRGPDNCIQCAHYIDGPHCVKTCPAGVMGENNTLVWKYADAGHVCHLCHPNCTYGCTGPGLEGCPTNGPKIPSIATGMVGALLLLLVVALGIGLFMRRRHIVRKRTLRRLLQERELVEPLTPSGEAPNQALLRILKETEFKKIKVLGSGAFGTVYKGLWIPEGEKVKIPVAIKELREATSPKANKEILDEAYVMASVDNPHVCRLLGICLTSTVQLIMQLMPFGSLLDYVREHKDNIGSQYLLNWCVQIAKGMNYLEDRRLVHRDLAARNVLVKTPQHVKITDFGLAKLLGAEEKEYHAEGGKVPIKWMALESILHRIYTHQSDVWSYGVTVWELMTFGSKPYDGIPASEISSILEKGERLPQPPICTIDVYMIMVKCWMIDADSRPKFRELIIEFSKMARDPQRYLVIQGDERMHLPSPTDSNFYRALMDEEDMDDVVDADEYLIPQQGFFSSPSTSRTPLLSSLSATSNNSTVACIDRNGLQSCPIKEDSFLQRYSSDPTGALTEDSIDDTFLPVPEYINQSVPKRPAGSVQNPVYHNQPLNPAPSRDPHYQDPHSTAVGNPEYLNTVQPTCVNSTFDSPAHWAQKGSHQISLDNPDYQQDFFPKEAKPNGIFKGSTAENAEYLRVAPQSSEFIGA
# Experiment: In-vitro enzyme experiment 2 (HTRF kinase assay), EGFR Del19 T790M C797S
# Assay type: biochemical
# Conditions: read-out: enzyme inhibition IC50 (nM) EGFR-Del19/T790M/C797S
# Procedure: The specific experiment was as follows: • 1. […] Test method of activity of compound • a) a compound diluent was transferred to each well of an assay plate (784075, Greiner) using Echo 550; • b) the assay plate was sealed and centrifuged at 1,000 g for 1 min; • c) 2×EGFR (D770-N771 ins NPG T790M) was prepared in a 1× kinase buffer; • d) 5 μl of the 2×EGFR (D770-N771 ins NPG T790M) was added to a 384-well assay plate (784075, Greiner); • e) the assay plate was centrifuged at 1,000 g for 30 s and incubated at room temperature for 10 min; • f) 2× TK-substrate-biotin (2 μM) and ATP were added to the 1× kinase buffer and mixed; • g) the reaction was started after adding 5 μl of the TK-substrate-biotin (2 μM) and ATP mixture; • h) the assay plate was centrifuged at 1,000 g for 30 s; and the assay plate was sealed and incubated at room temperature for 40 min; • i) 4× Sa-XL 665 was prepared in an HTRF detection buffer; • j) 5 μl of the Sa-XL 665 and 5 μl of a TK-antibody-cryptate were added to each well of the assay plate; • k) the assay plate was centrifuged at 1,000 g for 30 s and incubated at room temperature for 1 h; and • l) fluorescence signals at 615 nm (cryptate) and 665 nm (XL665) were read on an Envision 2104 reader. • 3. Data analysis • 3.1 Calculation of ratio (665/615 nm) of each well • 3.2 Calculation of inhibition rate
# [formula] • 3.3 Calculation of IC50 value of compound and drawing dose-effect curve of compound • IC50 values were calculated using GraphPad 6.0 by applying a non-linear regression curve (dose-effect relationship-variable slope) of the logarithm of the compound concentration versus the inhibition rate.
# The preparation of the kinase buffer, the test method of the activity of the compound, and the data analysis referred to the relevant definitions in example 117, wherein step c) of the test method of the activity of the compound was replaced by preparing 2×EGFR Del19 T790M C797S in the 1× kinase buffer.
row,Compound,IC50
1,CN1CCN(c2ccc(Nc3nc(N[C@@H]4C=C[C@H](CO)C4)c4c(C(=O)c5ccc(F)cc5)c[nH]c4n3)cc2)CC1 [Example 19],10 to 100 nM
2,CN1CCN(c2ccc(Nc3nc(N[C@H]4C=C[C@@H](CO)C4)c4c(C(=O)c5ccc(F)cc5)c[nH]c4n3)cc2)CC1 [Example 20],10 to 100 nM
3,CN1CCN(c2ccc(Nc3nc(N[C@@H]4CC[C@@H](CO)OC4)c4c(C(=O)c5ccc(F)cc5)c[nH]c4n3)cc2)CC1 [Example 95],10 to 100 nM
4,CN1CCN(c2ccc(Nc3nc(N[C@H]4CC[C@@H](CO)CC4)c4c(C(=O)c5ccc(F)cc5)c[nH]c4n3)cc2F)CC1 [Example 103],10 to 100 nM

# Further lines, results first:
row,IC50,Compound
1,10 to 100 nM,CN1CCN(c2ccc(Nc3nc(N[C@H]4CC[C@@H](O)CC4)c4c(C(=O)c5ccc(F)cc5)c[nH]c4n3)cc2)CC1 [Example 55]
2,10 to 100 nM,CN1CCN(c2ccc(Nc3nc(N[C@H]4CC[C@H](O)CC4)c4c(C(=O)c5ccc(F)cc5)c[nH]c4n3)cc2)CC1 [Example 56]
3,10 to 100 nM,CN1CCN(c2ccc(Nc3nc(N[C@H]4CC[C@H](CO)CC4)c4c(C(=O)c5ccc(F)cc5)c[nH]c4n3)cc2F)CC1 [Example 78]
4,< 10 nM,CN1CCN(c2ccc(Nc3nc(N[C@H]4CC[C@@H](N)CC4)c4c(C(=O)c5ccc(F)cc5)c[nH]c4n3)cc2)CC1 [Example 86]

# Tested on: A549 EGFR-WT
# Experiment: Cell proliferation inhibition experiment (CCK-8), A549
# Conditions: Homo sapiens, A549, 72 h, read-out: cell proliferation inhibition IC50 (μM) A549, 72 h, CCK-8
row,Compound,IC50
1,CN1CCN(c2ccc(Nc3nc(N[C@@H]4C=C[C@H](CO)C4)c4c(C(=O)c5ccc(F)cc5)c[nH]c4n3)cc2)CC1 [Example 19],0.1 to 1 µM
2,CN1CCN(c2ccc(Nc3nc(N[C@H]4C=C[C@@H](CO)C4)c4c(C(=O)c5ccc(F)cc5)c[nH]c4n3)cc2)CC1 [Example 20],0.1 to 1 µM
3,CN1CCN(c2ccc(Nc3nc(N[C@H]4CC[C@@H](CO)CC4)c4c(C(=O)c5ccc(F)cc5)c[nH]c4n3)cc2F)CC1 [Example 103],0.1 to 1 µM

# Other lines, results leading:
row,IC50,Compound
1,0.1 to 1 µM,CN1CCN(c2ccc(Nc3nc(N[C@H]4CC[C@@H](O)CC4)c4c(C(=O)c5ccc(F)cc5)c[nH]c4n3)cc2)CC1 [Example 55]
2,0.1 to 1 µM,CN1CCN(c2ccc(Nc3nc(N[C@H]4CC[C@H](O)CC4)c4c(C(=O)c5ccc(F)cc5)c[nH]c4n3)cc2)CC1 [Example 56]

# Same assay, conditions: Homo sapiens, A549, 72 h, read-out: cell proliferation inhibition IC50 (μM) A549, 72 h, CCK-8; Table 5 numeric
row,Compound,IC50
1,"C=CC(=O)Nc1cccc(Oc2nc(Nc3ccc(N4CCN(C)CC4)c(F)c3)nc3[nH]ccc23)c1 [Avitinib, reference compound]",1.06 µM
